US20070081978A1, “Adeno-associated virus-mediated survivin mutants and methods related thereto” (priority 2005, published 2007)

Key:
SW1116 cells [1] = assay: Drug-induced apoptosis by FACS analysis (Table 1); assay type: cell-based, Human; conditions: rAAV 1×10^5 viral particle/cell, or followed by 10 μg/ml 5-fluorouracil for 72 hour; mean ± SEM
Experimental: Cells were collected and fixed in ice-cold 70% ethanol in PBS and stored at −20° C. before use. After re-suspension, cells were washed and incubated with 100 μl of RNase I (1 mg/ml) and 100 μl of propidium iodide (400 μg/ml; Sigma) at 37° C. for 30 min. Samples were analyzed by flow cytometry (Coulter, Luton). The cell-cycle phase distribution was calculated from the resultant DNA histogram using Multicycle AV software (Phoenix Flow Systems, San Diego, Calif.). Cells with subdiploid DNA content were scored as apoptotic.

SW1116 cells [2] = assay: Intratumoral rAAV gene therapy in colon cancer xenograft model: tumor growth; assay type: in vivo, BALB/c nude mice; conditions: rAAV 5×10^10 particles/site, 3 sites; 5-FU i.p. 50 mg/kg on each of 5 days
Experimental: rAAV-Sur-Mut(Cys84Ala) inhibited tumor growth. (A) Untreated SW1116 cell were subcutaneously injected into the right flank of athymic female nude mice. Tumors were allowed to grow to approximately 100-150 mm^3 volume. Masses were injected in three sites with rAAV-Sur-Mut(Cys84Ala), rAAV-eGFP or rAAV-Sur(wt) at 5×10^10 viral particles/site of injection, or with PBS. Photographs were taken from representative mice 4 weeks after treatment. (B) Tumor growth was measured every week after injection. Data are the means±SEM of tumor size per mouse. (C) Tissue sections of formalin-fixed, paraffin-embedded xenograft tumors were stained by H&E, immunohistochemical stained for survivin or TUNEL stained for detection of apoptotic cells. Images were representative fields of view from tumors 5 days after treatment. (Original magnification ×200)
(§1) Five- to six-week-old female BALB/c nude mice were injected subcutaneously on the flanks with 2×10^6 exponentially growing SW1116 cells. Tumors were allowed to grow to 100˜150 mm^3 (5˜7 mm diameter). For local administration of rAAV, masses were injected in three sites with rAAV-Sur-Mut(Cys84Ala), rAAV-Sur(wt) or rAAV-EGFP at 5×10^10 viral particles/site of injection, or at each of the three site with PBS. Alternatively, mice were i.p. injected with 50 mg/kg 5-fluorouracil daily for 5 days, or a combination of rAAV virus and 5-Fluorouracil. Tumor growth was measured weekly after injection. In other experiments, mice received an injection of uninfected exponentially growing 2×10^6 SW1116 cells. After 7 days, mice were given an injection of same dosage of rAAV virus and 5-FU (3 animals/group). After 5 days, animals were euthanized, and their total tumor burden was excised, fixed and embedded in paraffin blocks for H&E, TUNEL and immunohistochemical staining, or tumors were snap-frozen in liquid nitrogen for CD31 staining.

SW1116 cells [3] = assay: Survival of xenograft-bearing mice; assay type: in vivo, BALB/c nude mice
Experimental: rAAV-Sur-Mut(Cys84Ala) prolonged the survival of mice. (A) Masses were injected in three sites with rAAV-Sur-Mut(Cys84Ala), rAAV-Sur(wt) and rAAV-eGFP at 5×10^10 viral particles/site of injection, or in combination with 5-Fluorouracil for 5 days. Tumor xenografts were collected and tissue sections of formalin-fixed, paraffin-embedded xenograft were TUNEL stained for apoptosis. (B) Survival curve. The experimental conditions were as in (A) Survival was monitored every day, and tumor volume was measured every week after treatment. Definition of death is natural death due to tumor burden or killing due to tumor sizes (diameter) more than 2.5 cm.
as §1, with “After 7 days, mice were given an injection of same dosage of rAAV virus and 5-FU (3 animals/group). After 5 days, animals were euthanized, and their total tumor burden was excised, fixed and embedded in paraffin blocks for H&E, TUNEL and immunohistochemical staining, or tumors were snap-frozen in liquid nitrogen for CD31 staining.” left out

`O=c1[nH]cc(F)c(=O)[nH]1` [5-FU, 5-fluorouracil] was tested, and the “% Apoptosis” value (SW1116 cells [1]) was 26.0 ± 3.4%, the “Number of mice with tumor regression” value (SW1116 cells [2]) was 0/4 and the Rate of inhibition (SW1116 cells [2]) was 61.2%. For the same molecule, the Tumor size (SW1116 cells [2]) was 606.3 ± 106.7 mm^3, the “survival (comparison in words)” value (SW1116 cells [3]; mouse, in vivo) was “survived significantly longer than buffer-treated mice” and the clinical symptoms (SW1116 cells [3]; tumor-bearing mice) was “developed severe symptoms related to tumor growth”.
